Patent US4317770A, “D-amino acid analogs of beta-endorphin” (Hoffmann-La Roche Inc., priority 1977, dated 1982)
“Also recorded” adds a separate entry of the source.

Assays:
[1] = cited from earlier work; for in vivo analgesic activity (duration): injected intracranially / centrally
[2] = injected into the peripheral system; cited from earlier work
mice [3] = experiment: analgesic potency in mice, tail-flick method, iv injection; format: in vivo, mouse; details: for inhibition of tail-flick response: iv
Experimental: (§1) The opiate activities of the analogs relative to βc -endorphin were measured in vitro in the guinea pig ileum (Brit. J. Pharmacol. 39, 398 (1970)) and in vivo by icv and iv injections using the tail-flick method (D'Amour and Smith, J. Pharmacol. Exp. Ther. 72,74 (1941). The results are summarized in Tables 2 and 3.
(§2) The analgesic properties of β-endorphin and its analogs were also assessed in mice by the tail-flick method of D'Amour and Smith, supra. The peptides, dissolved in saline, were injected either icv in a volume of 5 μl, according to the method described by Haley and McCormick, Brit. J. Pharmacol. 12, 12 (1957) or iv via the tail vein. To evaluate this analgesic response, a control latency (T0) was obtained from the mean of two latencies determined prior to drug injections, and the test latencies (T1) were determined at various times after injection for each animal. "Percent analgesic" was calculated as [(T1 -T0)/[…]]×100, where the cut off time (T2) was 10 sec.

mice [4] = experiment: analgesic potency in mice, tail-flick method, icv injection; format: in vivo, mouse; details: for Relative Potency (analgesic potency): calculated on molar basis using the AD50 of βc-endorphin as 100%; for Relative Potency (analgesic potency) / AD50 / analgesic activity: mice, tail-flick; for AD50: 95% confidence limits in parentheses; for order of activity in the mouse tail flick method: human endorphin analogs vs camel endorphin analogs, route not stated
Experimental: as §2

[5] = tested on: myenteric plexus longitudinal muscle preparation from guinea pig ileum; experiment: opiate activity, guinea pig ileum assay (electrically stimulated); format: cell-based; details: for IC50: in vitro; for Relative Potency: relative to βc-endorphin = 100; for order of activity in the guinea pig ileum assay: human endorphin analogs vs camel endorphin analogs
Experimental: as §1
The opiate activity was assayed in vitro by electrically stimulated myenteric plexus longitudinal muscle preparation from guinea pig ileum by the method of Kosterlitz et al., supra.

leucine aminopeptidase = details: compared with enkephalin; cited from earlier work

[D-Ala^2 ]-enkephalin
in vivo analgesic activity (duration) [1]: long-lasting analgesia

β-endorphin
in vivo analgesic activity, peripheral injection [2]: displays in vivo analgesic activity when injected into the peripheral system | in vivo analgesic activity (duration) [1]: long lasting | duration of action (mice [3]; intravenous, comparison of β-endorphin with D-Ala^2 analog): longer than its D-Ala^2 analog | AD50 (mice [3]; iv injection): 9.4 mg/kg | analgesic activity after iv injection (mice [3]; iv injection): potent analgesic

[D-Phe^4 ]-βc -endorphin [[D-Phe^4]-βc -EP]
Relative Potency (analgesic potency) (mice [4]): < 0.3% | behavioural effect (hyperreactivity) (mice [4]; icv, doses up to 43 μg): hyperreactivity to touch or vocal stimulation | inhibition of tail-flick response (mice [4]; icv, doses up to 43 μg): not active | AD50 (mice [4]; icv): > 43 μg/25 g mouse | IC50 ([5]; guinea pig ileum): 0.67 µM | Relative Potency [5]: 4

[D-Phe^4 ]-βh -endorphin
order of activity in the mouse tail flick method (mice [4]): same order of activity | order of activity in the guinea pig ileum assay [5]: same order of activity

βc -endorphin: β-endorphin having a sequence derived from camel; synthesized as control (YGGFMTSEKSQTPLVTLFKNAIIKNAHKKGQ; Beta-endorphin; UniProt P01203 1-31, looked up) [reference compound]
Relative Potency (analgesic potency) (mice [4]): 100.0% | analgesic activity (mice [4]; icv): much more active than morphine | AD50 (mice [4]; icv): 0.11 (0.07-0.17) μg/25 g mouse | IC50 ([5]; guinea pig ileum): 0.027 µM | Relative Potency [5]: 100 | resistance to attack by leucine aminopeptidase (leucine aminopeptidase): substantially more resistant to attack by leucine aminopeptidase than is enkephalin

[D-Tyr^1 ]-βc -endorphin [[D-Tyr^1]-βc -EP]
Relative Potency (analgesic potency) (mice [4]): 0.5% | AD50 (mice [4]; icv): 22.5 (13.4-37.8) μg/25 g mouse | IC50 ([5]; guinea pig ileum): 2.9 µM | Relative Potency [5]: ≤ 1

[D-Met^5 ]-βh -endorphin
order of activity in the mouse tail flick method (mice [4]): same order of activity | order of activity in the guinea pig ileum assay [5]: same order of activity

CN1CC[C@]23c4c5ccc(O)c4O[C@H]2[C@@H](O)C=C[C@H]3[C@H]1C5.O=S(=O)(O)O [Morphine sulfate, reference compound]
AD50 (mice [4]; icv): 0.42 (0.36-0.49) μg/25 g mouse

[D-Tyr^1 ]-βh -endorphin
order of activity in the mouse tail flick method (mice [4]): same order of activity | order of activity in the guinea pig ileum assay [5]: same order of activity

[D-Ala^2 ]-β-enkephalinamide
in vivo analgesic activity (duration) [1]: long-lasting analgesia | analgesic activity compared with enkephalin ([1]; relative to enkephalin, route not stated at the place): greater analgesic activity

[D-Met^5 ]-βc -endorphin [[D-Met^5]-βc -EP]
Relative Potency (analgesic potency) (mice [4]): 1.0% | analgesic activity (mice [4]; icv): still possesses analgesic activity | AD50 (mice [4]; icv): 11.48 (7.17-18.36) μg/25 g mouse | IC50 ([5]; guinea pig ileum): 0.66 µM | Relative Potency [5]: 4 | inhibition of tail-flick response (mice [3]; even at 120 mg/kg): not active

[D-Ala^2 ]-βh -endorphin
order of activity in the mouse tail flick method (mice [4]): same order of activity | order of activity in the guinea pig ileum assay [5]: same order of activity

CC(C)C[C@H](NC(=O)[C@H](Cc1ccccc1)NC(=O)CNC(=O)CNC(=O)[C@@H](N)Cc1ccc(O)cc1)C(=O)O [enkephalin]
in vivo analgesic activity (duration) [1]: short duration

[D-Ala^2 ]-βc -endorphin [[D-Ala^2]-βc -EP]
Relative Potency (analgesic potency) (mice [4]): 100.0% | Relative Potency (analgesic potency) (mice [4]; listed as [D-Ala^2 ]-βc -endorphin): 100% | antagonism of analgesic response by naloxone (mice [4]; icv, doses of 0.11 to 0.42 μg): blocked by naloxone | duration of analgesic response (mice [4]; icv, doses of 0.11 to 0.42 μg): 30 to 90 min | antagonism of analgesic response by naloxone (mice [4]; icv, higher dose): also blocked by naloxone | duration of response at higher dose (mice [4]; icv, higher dose): prolonged | analgesic activity (mice [4]; icv): little alteration in analgesic activity | analgesic activity (mice [4]; icv, listed as [D-Ala^2 ]-β-endorphin): most significant analgesic activity; also recorded: equipotent to βc -endorphin; also recorded: dose-related increase in analgesic response | AD50 (mice [4]; icv): 0.11 (0.08-0.17) μg/25 g mouse | activity in in vitro assay relative to parent molecule ([5]; guinea pig ileum): 43% | IC50 ([5]; guinea pig ileum): 0.063 µM | Relative Potency [5]: 43 | inhibition of tail-flick response (mice [3]; 25.5 mg/kg): not active
